Source: ChEMBL document CHEMBL1124303, “Conformational requirements of substrates for activity with phenylethanolamine N-methyltransferase” (J Med Chem, 1988)

Legend:
[1] = Km value was measured; assay type: ADME
[2] = Vmax value was measured; assay type: ADME
[3] = target: T1, Phenylethanolamine N-methyltransferase (Bos taurus, UniProt P10938); assay: Binding affinity to phenylethanolamine N-methyltransferase(PNMT) in bovine
T1 sequence (P10938 whole entry): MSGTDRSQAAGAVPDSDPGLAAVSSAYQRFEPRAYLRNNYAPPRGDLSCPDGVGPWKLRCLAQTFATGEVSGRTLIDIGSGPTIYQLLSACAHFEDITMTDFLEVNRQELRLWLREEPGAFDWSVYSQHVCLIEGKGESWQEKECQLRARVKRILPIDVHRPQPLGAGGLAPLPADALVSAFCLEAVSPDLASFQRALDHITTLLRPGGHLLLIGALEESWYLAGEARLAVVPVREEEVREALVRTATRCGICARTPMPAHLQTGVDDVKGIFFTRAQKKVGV

[4] = Ratio of Vmax to Km of compound was determined; assay type: ADME

NC[C@@H](O)c1ccccc1
Km [1]: 70 µM | Vmax [2]: 2.2 nmol/min/mg

OC1CNCc2ccccc21 (stereo not drawn)
Ki [3]: 176 µM

N[C@H]1CCc2ccccc2[C@H]1O
Km [1]: 22 µM | Vmax [2]: 0.15 nmol/min/mg | Ratio [4]: 68

N[C@H]1CCc2ccccc2[C@@H]1O
Ki [3]: 9.4 µM

c1ccc2c(c1)CCNC2 [1,2,3,4-TETRAHYDROISOQUINOLINE]
Ki [3]: 10 µM
